Assay results from article PMC6438538, “Targeting ferroptosis: A novel therapeutic strategy for the treatment of mitochondrial disease-related epilepsy” (PLoS ONE, 2019).

Biological target: T1, 15-lipoxygenase-1 (15-LO) (Homo sapiens, UniProt P16050)
T1 construct: gene ALOX15; 6xHis-tagged human 15-LO
T1 sequence (P16050 2-662): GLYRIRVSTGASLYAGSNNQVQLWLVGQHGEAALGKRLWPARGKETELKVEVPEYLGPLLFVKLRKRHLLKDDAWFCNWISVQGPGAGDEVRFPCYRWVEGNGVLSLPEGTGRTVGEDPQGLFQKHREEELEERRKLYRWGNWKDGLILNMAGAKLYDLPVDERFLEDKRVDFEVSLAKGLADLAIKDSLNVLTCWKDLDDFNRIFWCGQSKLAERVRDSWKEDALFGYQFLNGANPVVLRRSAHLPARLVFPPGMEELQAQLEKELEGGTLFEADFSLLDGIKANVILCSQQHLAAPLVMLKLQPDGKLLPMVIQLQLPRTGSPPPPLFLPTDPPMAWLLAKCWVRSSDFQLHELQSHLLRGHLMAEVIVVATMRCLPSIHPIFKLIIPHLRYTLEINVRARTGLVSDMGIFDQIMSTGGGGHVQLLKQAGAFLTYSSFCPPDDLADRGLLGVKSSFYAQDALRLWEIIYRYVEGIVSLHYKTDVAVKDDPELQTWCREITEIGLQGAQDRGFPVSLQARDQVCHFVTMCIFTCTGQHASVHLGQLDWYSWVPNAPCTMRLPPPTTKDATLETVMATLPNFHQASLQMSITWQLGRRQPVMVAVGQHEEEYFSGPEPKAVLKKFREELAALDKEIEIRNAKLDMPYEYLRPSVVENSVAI
Experiment: ferrous oxidation-xylenol orange (FOX) assay with purified human 15-LO and arachidonic acid
Assay type: biochemical

## CC(C)=CCC/C(C)=C/CC/C(C)=C/CC[C@@](C)(O)CCc1c(C)c(O)c(C)c(C)c1O [EPI-743-HQ, EPI-743 hydroquinone]
  IC50: 4.4 µM
